Experimental data from patent US4154932A (priority 1977, dated 1979).

Tests used:
[1] = tested on: Straub Tail induced by oxymorphone; assay: Antagonism of oxymorphone-induced Straub Tail (antagonist activity); type: in vivo, mouse; settings: Mus musculus, sc, mice; Table 1; oxymorphone 2 mg/kg, s.c.; read-out: Antagonist Activity, Oxymorphone Straub Tail ED50
Procedure: ^2 Antagonism of Straub Tail induced by oxymorphone (2 mg/kg, s.c.) i

[2] = tested on: phenylquinone induced writhings; assay: animal or person; settings: Mus musculus, sc, read-out: Agonist Activity, Phenylquinone Writhing ED50
Procedure: In vivo testing was conducted on many of the compounds of the present invention.

What does the source list for `COc1ccc2c(c1)[C@]13CCN(C)[C@H](C2)[C@@H]1CCOC3` (racemic) [(±)-V, 3-Methoxy-17-methyl-6-oxamorphinan]?
ED50 [1]: > 20 mg/kg; ED50 [2]: 1.32 mg/kg

With `COc1ccc2c(c1)[C@]13CCN[C@H](C2)[C@@H]1CCOC3` (racemic) [(±)-VIII, 3-methoxy-6-oxamorphinan] as the compound, how does the ED50 [1] read?
Its ED50 is > 40 mg/kg.

And the ED50 [2]?
The ED50 was ~40 mg/kg.

`CN1CCC23COCCC2C1Cc1ccc(O)cc13` (racemic) [(±)-VI] was tested. Which ED50 [1] did it give?
The ED50 was > 40 mg/kg.

And the ED50 [2]?
Its ED50 is 0.34 mg/kg.

Which results are given for `COc1ccc2c(c1)[C@]13CCN(CC4CC4)[C@H](C2)[C@@H]1CCOC3` (racemic) [(±)-X, 17-Cyclopropylmethyl-3-methoxy-6-oxamorphinan]?
ED50 [1]: 10 mg/kg; ED50 [2]: 0.38 mg/kg

Which results are given for `Oc1ccc2c(c1)[C@]13CCN(CC4CC4)[C@H](C2)[C@@H]1CCOC3` (racemic) [(±)-XI, 17-Cyclopropylmethyl-3-hydroxy-6-oxamorphinan]?
ED50 [1]: 0.76 mg/kg; ED50 [2]: 0.037 mg/kg

`COc1ccc2c(c1)[C@]13CCN(CC4CCC4)[C@H](C2)[C@@H]1CCOC3` (racemic) [(±)-XIII, 17-Cyclobutylmethyl-3-methoxy-6-oxamorphinan] was tested. Which ED50 [1] did it give?
Its ED50 is ~15 mg/kg.

And the ED50 [2]?
Its ED50 is 0.38 mg/kg.
